Non-standard residues stand in square brackets, D forms with d. Residues, ends and D or L forms follow the SMILES beside them. No end group written: not given here. Ahx = NCCCCCC(=O)O
Experiments:
[1] = Peptide stability in human serum (MALDI-TOF); assay type: in vitro ADME; conditions: for remaining at 24 h, 100 µM: after 24h of incubation at 37°C in human serum, 100 µM (Figure 6), read-out: peptide still present
Procedure: The peptides were incubated at 37°C in 250 µL of human serum (Gibco) for different periods of time. Samples were collected and peptide degradation stopped by freezing at -20°C. The peptide was extracted from samples using the Proteo Miner Protein Enrichment System (Bio-Rad). The percentage of intact peptide was estimated by MS using MALDI-TOFF using the protocol previously described (Bruker Autoflex II) according to the manufacturer's instructions. Measurements were performed in triplicate. MS data were analysed using the software Cliprot tools, Flex analysis, Bruker.

[2] = target: T1, Leucine-rich repeat kinase 2 (LRRK2), human (human, UniProt Q5S007 1-2527); assay: PP1 dodecapeptide array on cellulose membrane
T1 construct: Protein as present in MDA-MB231 lysates; also called dardarin
T1 sequence (Q5S007 whole entry R50H/L212S): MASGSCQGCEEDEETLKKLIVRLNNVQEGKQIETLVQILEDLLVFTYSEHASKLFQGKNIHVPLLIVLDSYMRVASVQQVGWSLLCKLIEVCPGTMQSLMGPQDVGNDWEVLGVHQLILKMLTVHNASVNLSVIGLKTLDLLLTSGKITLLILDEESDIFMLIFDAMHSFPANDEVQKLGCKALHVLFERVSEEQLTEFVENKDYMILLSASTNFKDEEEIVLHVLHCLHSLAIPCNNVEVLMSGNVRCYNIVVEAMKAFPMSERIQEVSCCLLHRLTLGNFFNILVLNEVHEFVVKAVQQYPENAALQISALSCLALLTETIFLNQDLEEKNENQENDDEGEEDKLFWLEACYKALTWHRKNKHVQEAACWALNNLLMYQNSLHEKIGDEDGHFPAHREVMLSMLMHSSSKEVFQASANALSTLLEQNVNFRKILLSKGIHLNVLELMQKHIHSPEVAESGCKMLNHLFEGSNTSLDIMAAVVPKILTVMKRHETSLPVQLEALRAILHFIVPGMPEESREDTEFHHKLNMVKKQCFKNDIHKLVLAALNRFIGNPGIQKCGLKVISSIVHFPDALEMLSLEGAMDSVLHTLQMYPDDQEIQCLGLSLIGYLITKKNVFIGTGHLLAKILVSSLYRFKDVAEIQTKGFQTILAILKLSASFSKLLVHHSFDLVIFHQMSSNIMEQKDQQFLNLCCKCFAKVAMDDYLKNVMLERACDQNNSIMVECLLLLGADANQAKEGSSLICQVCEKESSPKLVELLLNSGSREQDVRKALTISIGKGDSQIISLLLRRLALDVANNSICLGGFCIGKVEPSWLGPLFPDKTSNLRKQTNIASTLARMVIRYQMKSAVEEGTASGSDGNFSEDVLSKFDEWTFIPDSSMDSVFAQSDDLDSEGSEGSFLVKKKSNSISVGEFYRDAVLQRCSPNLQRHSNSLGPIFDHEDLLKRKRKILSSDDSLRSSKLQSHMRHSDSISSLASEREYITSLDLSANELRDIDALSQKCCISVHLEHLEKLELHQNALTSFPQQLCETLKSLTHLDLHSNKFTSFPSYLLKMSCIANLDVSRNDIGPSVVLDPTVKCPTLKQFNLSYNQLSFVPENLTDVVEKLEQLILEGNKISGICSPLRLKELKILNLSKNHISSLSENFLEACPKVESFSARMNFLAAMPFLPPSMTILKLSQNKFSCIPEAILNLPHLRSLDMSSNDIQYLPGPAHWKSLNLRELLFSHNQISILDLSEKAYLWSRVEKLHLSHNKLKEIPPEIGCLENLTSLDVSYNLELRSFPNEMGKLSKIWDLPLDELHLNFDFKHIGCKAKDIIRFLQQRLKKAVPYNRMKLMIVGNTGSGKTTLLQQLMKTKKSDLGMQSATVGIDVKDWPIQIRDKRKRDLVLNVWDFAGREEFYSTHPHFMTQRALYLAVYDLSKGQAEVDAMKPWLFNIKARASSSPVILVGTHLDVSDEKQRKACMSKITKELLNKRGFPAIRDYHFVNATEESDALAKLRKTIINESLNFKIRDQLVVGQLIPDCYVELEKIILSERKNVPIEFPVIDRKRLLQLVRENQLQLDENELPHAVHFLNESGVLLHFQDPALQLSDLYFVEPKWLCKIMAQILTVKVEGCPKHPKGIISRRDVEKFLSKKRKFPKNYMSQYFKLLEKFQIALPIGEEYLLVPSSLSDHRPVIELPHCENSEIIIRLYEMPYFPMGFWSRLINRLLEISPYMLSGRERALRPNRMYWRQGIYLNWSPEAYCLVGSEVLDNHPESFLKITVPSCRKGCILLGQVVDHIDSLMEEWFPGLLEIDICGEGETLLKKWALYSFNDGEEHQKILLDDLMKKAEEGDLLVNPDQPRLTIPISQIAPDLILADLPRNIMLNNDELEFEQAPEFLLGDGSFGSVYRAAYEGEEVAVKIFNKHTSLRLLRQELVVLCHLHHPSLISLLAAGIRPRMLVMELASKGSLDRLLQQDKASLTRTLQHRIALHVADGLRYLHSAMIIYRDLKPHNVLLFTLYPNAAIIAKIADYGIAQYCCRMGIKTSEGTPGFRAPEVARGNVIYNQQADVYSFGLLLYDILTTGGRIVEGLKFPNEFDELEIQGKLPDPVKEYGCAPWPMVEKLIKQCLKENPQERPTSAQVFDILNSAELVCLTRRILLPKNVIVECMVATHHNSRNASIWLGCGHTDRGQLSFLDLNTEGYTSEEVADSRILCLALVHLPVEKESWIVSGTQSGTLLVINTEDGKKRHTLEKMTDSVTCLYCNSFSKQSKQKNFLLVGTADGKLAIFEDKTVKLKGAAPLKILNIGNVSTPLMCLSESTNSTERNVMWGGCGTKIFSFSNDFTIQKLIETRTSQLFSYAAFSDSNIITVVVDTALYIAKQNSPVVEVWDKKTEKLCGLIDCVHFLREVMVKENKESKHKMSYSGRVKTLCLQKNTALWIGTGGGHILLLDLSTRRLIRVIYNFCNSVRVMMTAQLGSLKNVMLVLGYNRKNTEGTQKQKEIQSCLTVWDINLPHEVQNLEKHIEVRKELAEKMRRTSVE

Molecule	remaining at 24 h, 100 µM [1] [%]	stability in serum (resistance to proteases) ([1]; human serum, 37°C, result in words)	binding result [2]
CC[C@H](C)[C@H](NC(=O)[C@H](CCC(=O)O)NC(=O)[C@H](CC(C)C)NC(=O)[C@H](CC(C)C)NC(=O)[C@H](CCCNC(=N)N)NC(=O)[C@H](CC(N)=O)NC(=O)[C@@H](NC(=O)[C@H](CC(C)C)NC(=O)[C@H](CCCNC(=N)N)NC(=O)[C@H](CO)NC(=O)[C@H](Cc1c[nH]c2ccccc12)NC(=O)[C@H](Cc1ccccc1)NC(=O)CN)[C@@H](C)CC)C(=O)NCCCCCC(=O)N[C@@H](CO)C(=O)N[C@@H](CCCNC(=N)N)C(=O)N[C@@H](CCCNC(=N)N)C(=O)N[C@H](C(=O)N[C@H](C(=O)N[C@@H](CO)C(=O)N[C@@H](CCCNC(=N)N)C(=O)N[C@@H](C)C(=O)N[C@@H](CCCCN)C(=O)N[C@@H](CC(C)C)C(=O)N[C@@H](C)C(=O)N[C@@H](C)C(=O)N[C@@H](C)C(=O)N[C@@H](CC(C)C)C(=O)O)[C@@H](C)CC)C(C)C [Peptide 1, GFWSRLINRLLEI- AHx -SRRVISRAKLAAAL] (H-GFWSRLINRLLEI[Ahx]SRRVISRAKLAAAL-OH)	> 90	particularly high	
GFWSRLINRLLEIGGSSRRVISRAKLAAAL [Peptide 2, GFWSRLINRLLEI- GGS -SRRVISRAKLAAAL]	> 90		

Next, values leading:

remaining at 24 h, 100 µM [1] [%]	stability in serum (resistance to proteases) ([1]; human serum, 37°C, result in words)	binding result [2]	Molecule
		binds	VQGSRPGKNVQLTENE (Synthetic peptide, isolated fragment of PP1) [Peptide 19 (VQGSRPGKNVQLTENE), fragment of PP1]
		binds	AEVVAKFLHKHDLDLICRAH (Synthetic peptide, isolated fragment of PP1) [Peptide 20 (AEVVAKFLHKHDLDLICRAH), fragment of PP1]
		binds	NPGGRPITPPRNSAKAKK (Synthetic peptide, isolated fragment of PP1) [Peptide 21 (NPGGRPITPPRNSAKAKK), fragment of PP1]
